Test results published in ChEMBL document CHEMBL3856287, “Synthesis of novel tetrazole derivatives and evaluation of their antifungal activity” (Bioorg Med Chem, 2016).

Tests used:
[1] = Antifungal activity against Fusarium oxysporum MF5 assessed as radial growth inhibition at 16 ug/ml after 5 to 7 days relative to control; type: functional
[2] = Antifungal activity against Colletotrichum coccodes MC1 assessed as radial growth inhibition at 16 ug/ml after 5 to 7 days relative to control; type: functional
Aspergillus niger [3] = test: Antifungal activity against Aspergillus niger ATCC 16404 assessed as radial growth inhibition at 16 ug/ml after 5 to 7 days relative to control; type: functional; conditions: read-out: GI
[4] = Antifungal activity against Fusarium sambucinum MF1 assessed as radial growth inhibition at 16 ug/ml after 5 to 7 days relative to control; type: functional
Candida albicans [5] = test: Antifungal activity against Candida albicans ATCC 90028 assessed as growth inhibition after 7 days in presence of osmotic protector 0.8 M sorbitol by broth microdilution method; type: functional; conditions: ATCC 90028, 168 h
Candida albicans [6] = test: Antifungal activity against Candida albicans ATCC 90028 assessed as growth inhibition at 4 ug/ml after 48 hrs by broth microdilution method relative to control; type: functional; conditions: ATCC 90028, 48 h, read-out: GI
[7] = Antifungal activity against Fusarium sambucinum MF1 assessed as radial growth inhibition at 64 ug/ml after 5 to 7 days relative to control; type: functional
Candida albicans [8] = test: Antifungal activity against Candida albicans ATCC 90028 after 18 to 48 hrs in presence of 10 ug/ml fluconazole by checkerboard assay; type: functional
Candida albicans [9] = test: Fungicidal activity against Candida albicans ATCC 90028 at MIC after 7 days in presence of osmotic protector 0.8 M sorbitol by broth microdilution method; type: functional
Candida albicans [10] = test: Antifungal activity against Candida albicans ATCC 90028 assessed as growth inhibition after 48 hrs in presence of osmotic protector 0.8 M sorbitol by broth microdilution method; type: functional; conditions: ATCC 90028, 48 h
Candida albicans [11] = test: Antifungal activity against Candida albicans ATCC 90028 after 18 to 48 hrs in presence of 2.5 ug/ml fluconazole by checkerboard assay; type: functional
Candida albicans [12] = test: Antifungal activity against Candida albicans ATCC 90028 assessed as growth inhibition at 0.5 ug/ml after 48 hrs by broth microdilution method relative to control; type: functional; conditions: ATCC 90028, 48 h, read-out: GI
Candida albicans [13] = test: Antifungal activity against Candida albicans ATCC 90028 after 18 to 48 hrs in presence of 80 ug/ml fluconazole by checkerboard assay; type: functional
[14] = Toxicity in last instar larval stage of Galleria mellonella assessed as survival at 16 ug/ml after 96 hrs
Candida albicans [15] = test: Antifungal activity against Candida albicans ATCC 90028 assessed as growth inhibition at 1 ug/ml after 48 hrs by broth microdilution method relative to control; type: functional; conditions: ATCC 90028, 48 h, read-out: GI
Candida albicans [16] = test: Antifungal activity against Candida albicans ATCC 90028 assessed as growth inhibition at 8 ug/ml after 48 hrs by broth microdilution method relative to control; type: functional; conditions: ATCC 90028, 48 h, read-out: GI
Aspergillus niger [17] = test: Antifungal activity against Aspergillus niger ATCC 16404 assessed as radial growth inhibition at 64 ug/ml after 5 to 7 days relative to control; type: functional; conditions: read-out: GI
[18] = Antifungal activity against Colletotrichum coccodes MC1 assessed as radial growth inhibition at 64 ug/ml after 5 to 7 days relative to control; type: functional
Candida albicans [19] = test: Antifungal activity against Candida albicans ATCC 90028 after 18 to 48 hrs in presence of 20 ug/ml fluconazole by checkerboard assay; type: functional
Candida albicans [20] = test: Antifungal activity against Candida albicans ATCC 90028 after 18 to 48 hrs in presence of 1.25 ug/ml fluconazole by checkerboard assay; type: functional
[21] = Antifungal activity against Fusarium oxysporum MF5 assessed as radial growth inhibition at 64 ug/ml after 5 to 7 days relative to control; type: functional
Candida albicans [22] = test: Antifungal activity against Candida albicans ATCC 90028 assessed as growth inhibition at 16 ug/ml after 48 hrs by broth microdilution method relative to control; type: functional; conditions: ATCC 90028, 48 h, read-out: GI
Candida albicans [23] = test: Antifungal activity against Candida albicans ATCC 90028 assessed as growth inhibition at 2 ug/ml after 48 hrs by broth microdilution method relative to control; type: functional; conditions: ATCC 90028, 48 h, read-out: GI
Candida albicans [24] = test: Antifungal activity against Candida albicans ATCC 90028 assessed as growth inhibition after 48 hrs by broth microdilution method; type: functional; conditions: ATCC 90028, 48 h
Candida albicans [25] = test: Antifungal activity against Candida albicans ATCC 90028 assessed as growth inhibition after 18 to 48 hrs in presence of 1.25 ug/ml fluconazole by checkerboard assay; type: functional
Candida albicans [26] = test: Antifungal activity against Candida albicans ATCC 90028 after 18 to 48 hrs in presence of 5 ug/ml fluconazole by checkerboard assay; type: functional
Candida albicans [27] = test: Antifungal activity against Candida albicans ATCC 90028 after 18 to 48 hrs in presence of 40 ug/ml fluconazole by checkerboard assay; type: functional
Candida albicans [28] = test: Antifungal activity against Candida albicans ATCC 90028 assessed as growth inhibition at 0.0313 ug/ml after 48 hrs by broth microdilution method relative to control; type: functional; conditions: ATCC 90028, 48 h, read-out: GI
Candida albicans [29] = test: Antifungal activity against Candida albicans ATCC 90028 assessed as growth inhibition at 0.25 ug/ml after 48 hrs by broth microdilution method relative to control; type: functional; conditions: ATCC 90028, 48 h, read-out: GI
Candida albicans [30] = test: Antifungal activity against Candida albicans ATCC 90028 assessed as growth inhibition at 0.125 ug/ml after 48 hrs by broth microdilution method relative to control; type: functional; conditions: ATCC 90028, 48 h, read-out: GI
Candida albicans [31] = test: Antifungal activity against Candida albicans ATCC 90028 assessed as growth inhibition at 0.0625 ug/ml after 48 hrs by broth microdilution method relative to control; type: functional; conditions: ATCC 90028, 48 h, read-out: GI

C[C@@H]1[C@H](O)[C@@H](C)/C=C/C=C/C=C/C=C/C=C/C=C/C=C/[C@H](O[C@@H]2O[C@H](C)[C@@H](O)[C@H](N)[C@@H]2O)C[C@@H]2O[C@](O)(C[C@@H](O)C[C@@H](O)[C@H](O)CC[C@@H](O)C[C@@H](O)CC(=O)O[C@H]1C)C[C@H](O)[C@H]2C(=O)O [AMPHOTERICIN B]
growth inhibition (GI) [1]: 77%
growth inhibition (GI) [2]: 86.7%
inhibition of growth at 16 µg/mL (Aspergillus niger [3]): 100%
growth inhibition (GI) [4]: 86%

Clc1ccccc1-c1nnn(CCCSc2nc3ccccc3o2)n1
MIC (Candida albicans [5]): 1 µg/mL
inhibition of growth at 4 µg/mL (Candida albicans [6]): 99.2%
growth inhibition (GI) [7]: 14.5%
Activity (Candida albicans [8]): 100%
Activity (Candida albicans [9]): 97%
MIC (Candida albicans [10]): 1 µg/mL
Activity (Candida albicans [11]): 100%
inhibition of growth at 0.5 µg/mL (Candida albicans [12]): 98.9%
Activity (Candida albicans [13]): 100%
survival at 96 h [14]: 100%
inhibition of growth at 1 µg/mL (Candida albicans [15]): 99.1%
inhibition of growth at 8 µg/mL (Candida albicans [16]): 99.2%
inhibition of growth at 64 µg/mL (Aspergillus niger [17]): 6%
growth inhibition (GI) [18]: 33.4%
Activity (Candida albicans [19]): 100%
Activity (Candida albicans [20]): 100%
growth inhibition (GI) [21]: 0%
inhibition of growth at 16 µg/mL (Candida albicans [22]): 99.1%
inhibition of growth at 2 µg/mL (Candida albicans [23]): 99.1%
MIC (Candida albicans [24]): > 16 µg/mL
MIC (Candida albicans [25]): 1.25 µg/mL
Activity (Candida albicans [26]): 100%
Activity (Candida albicans [27]): 100%

O=S(=O)(CCn1nnc(-c2ccc(Cl)cc2)n1)c1ccccc1
inhibition of growth at 4 µg/mL (Candida albicans [6]): 99.4%
growth inhibition (GI) [7]: 1.8%
inhibition of growth at 0.5 µg/mL (Candida albicans [12]): 99.4%
inhibition of growth at 1 µg/mL (Candida albicans [15]): 99.4%
inhibition of growth at 8 µg/mL (Candida albicans [16]): 99.5%
inhibition of growth at 64 µg/mL (Aspergillus niger [17]): 11.2%
inhibition of growth at 0.0313 µg/mL (Candida albicans [28]): 99%
growth inhibition (GI) [18]: 18.4%
inhibition of growth at 0.25 µg/mL (Candida albicans [29]): 99.3%
growth inhibition (GI) [21]: 1.7%
inhibition of growth at 0.125 µg/mL (Candida albicans [30]): 99.3%
inhibition of growth at 2 µg/mL (Candida albicans [23]): 99.4%

O=S(=O)(CCn1nnc(-c2ccccc2)n1)c1ccccc1
inhibition of growth at 4 µg/mL (Candida albicans [6]): 98.9%
growth inhibition (GI) [7]: 14.5%
inhibition of growth at 0.5 µg/mL (Candida albicans [12]): 98.9%
inhibition of growth at 0.0625 µg/mL (Candida albicans [31]): 99%
inhibition of growth at 1 µg/mL (Candida albicans [15]): 99%
inhibition of growth at 8 µg/mL (Candida albicans [16]): 99.1%
inhibition of growth at 64 µg/mL (Aspergillus niger [17]): 18.5%
inhibition of growth at 0.0313 µg/mL (Candida albicans [28]): 99.1%
growth inhibition (GI) [18]: 41.1%
inhibition of growth at 0.25 µg/mL (Candida albicans [29]): 99%
growth inhibition (GI) [21]: 17.7%
inhibition of growth at 16 µg/mL (Candida albicans [22]): 99.1%
inhibition of growth at 0.125 µg/mL (Candida albicans [30]): 98.7%
inhibition of growth at 2 µg/mL (Candida albicans [23]): 99%

Clc1ccccc1-c1nnn(CCCSc2nc3ccccc3s2)n1
inhibition of growth at 4 µg/mL (Candida albicans [6]): 98.7%
growth inhibition (GI) [7]: 5%
inhibition of growth at 0.5 µg/mL (Candida albicans [12]): 98.6%
inhibition of growth at 0.0625 µg/mL (Candida albicans [31]): 98.9%
inhibition of growth at 1 µg/mL (Candida albicans [15]): 98.7%
inhibition of growth at 8 µg/mL (Candida albicans [16]): 98.6%
inhibition of growth at 64 µg/mL (Aspergillus niger [17]): 0%
inhibition of growth at 0.0313 µg/mL (Candida albicans [28]): 98.8%
growth inhibition (GI) [18]: 16.7%
inhibition of growth at 0.25 µg/mL (Candida albicans [29]): 98.7%
growth inhibition (GI) [21]: 0%
inhibition of growth at 16 µg/mL (Candida albicans [22]): 98.8%
inhibition of growth at 0.125 µg/mL (Candida albicans [30]): 99%
inhibition of growth at 2 µg/mL (Candida albicans [23]): 98%

Clc1ccc(-c2nnn(CCCSc3nc4ccccc4s3)n2)cc1
growth inhibition (GI) [7]: 5%
inhibition of growth at 64 µg/mL (Aspergillus niger [17]): 0%
growth inhibition (GI) [18]: 36.7%
growth inhibition (GI) [21]: 0%

c1ccc(-c2nnn(CCCSc3nc4ccccc4o3)n2)cc1
growth inhibition (GI) [7]: 27%
inhibition of growth at 64 µg/mL (Aspergillus niger [17]): 20.6%
growth inhibition (GI) [18]: 43.4%
growth inhibition (GI) [21]: 6%
